Experimental findings from US7960395B2, “5,7-disubstituted thiazolo[4,5-d]pyrimidines for the selective inhibition of chemokine receptors” (AstraZeneca AB, priority 2006, dated 2011) are described below.

A word on the Ki: it is the equilibrium dissociation constant of an inhibitor or competing ligand from its target. Read a high Ki as weaker binding.

This assay has as its target T1, hCX3CR1 (Homo sapiens, UniProt P49238).
T1 construct: expressed in transfected cells; host or cells: human embryonic kidney suspension (HEKS) 293 cells stably expressing chimeric G-protein Gαqi5; membranes prepared from them
T1 sequence (P49238 1-355): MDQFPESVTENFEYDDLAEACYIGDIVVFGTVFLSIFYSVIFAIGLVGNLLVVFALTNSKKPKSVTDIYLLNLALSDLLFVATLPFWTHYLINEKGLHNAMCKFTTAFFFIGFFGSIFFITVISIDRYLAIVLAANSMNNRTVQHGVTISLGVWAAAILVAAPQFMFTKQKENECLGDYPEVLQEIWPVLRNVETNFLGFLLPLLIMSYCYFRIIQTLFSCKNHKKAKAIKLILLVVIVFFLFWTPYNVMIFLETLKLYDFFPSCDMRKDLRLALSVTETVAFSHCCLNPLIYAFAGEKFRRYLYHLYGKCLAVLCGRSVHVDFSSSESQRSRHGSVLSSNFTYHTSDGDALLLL
Description: in vitro hCX3CR1 binding assay ([125I]-fractalkine competition binding, membranes). The following applies: final compounds. The source says:
Recombinant human fractalkine (hCX3CL1) and recombinant human interleukin-8 (IL-8 or hCXCL8) were purchased from PeproTech Inc., UK. Recombinant [^125I]-fractalkine (human) and [^125I]hIL-8 with the specific activity of 2200 Ci/mmol, was purchased from NEN® Life Science Products, Inc., UK. Fluo-4-AM was purchased from Molecular Probes, US. All other chemicals were of analytical grade.
The complete human CX3CR1 cDNA (GenBank accession number U20350) was extracted from human brain mRNA (Superscript, Life Technologies) and ligated into pCR-Blunt II TOPO vector (InVitrogen). The insert corresponding hCX3CR1 was isolated and further subcloned into pcDNA3.1zeo. Plasmid DNA was prepared using Plasmid Midi Kit (Qiagen). Using Superfect Transfection Reagent (Qiagen) according to the manufacturer's protocol the expression plasmid for hCX3CR1 was then introduced into human embryonic kidney suspension (HEKS) 293 cell line containing a vector for stable expression of a chimeric G-protein Gαqi5. A stable clone was generated utilizing zeocin (500 μg/mL) and hygromycin (100 μg/mL) selection. For further applications the cells were maintained in Dulbecco's modified Eagle's medium/Ham's nutrient mix F12 (DMEM/F12) containing pyridoxine and supplemented with 10% (v/v) fetal bovine serum, 2 mM L-glutamine, 100 U/ml penicillin and […] streptomycin, 250 μg/mL zeocin and 100 μg/mL hygromycin.
Cells are grown at 37° C. and 5% CO2 and harvested at 60-80% confluence in buffer containing 10 mM Tris-HCl pH 7.4, 5 mM EDTA, 0.1 mg/mL bacitracin. The cells are centrifuged at 300×g for 10 min and the pellet is resuspended in harvesting buffer (10 mM Tris-HCl, pH 7.4, 5 mM ethylenediaminetetra-aceticacid (EDTA) and 0.1 mg/mL bacitracin), pooled and homogenised using a Dounce homogeniser. The homogenate is centrifuged in 48000×g for 10 min and resuspended in harvesting buffer using Ultra-Turrax T8. Membrane aliquots are stored at −80° C. Protein concentration was determined in microtiter plates as described by Harrington (1990, Anal. Biochem. 186, 285-287).
Competition binding studies of [^125I]fraktalkine were performed in 2 mL 96-deep-well plates (Beckman, Germany) in a total volume of 1000 μL/well. Each well contained […] [^125I]-fractalkine and membrane equivalent to receptor concentration of 1 μM in assay buffer (50 mM Hepes-KOH, pH 7.4, 10 mM MgCl2, 1 mM EDTA, 0.1% (w/v) gelatine). Ten concentrations (2 points/log unit) of the test compounds were pre-dissolved in DMSO and added to reach a final concentration of 1% (v/v) DMSO. The assay was initiated with the addition of membranes and incubated at 25° C. for 24 h. The reactions were stopped by rapid filtration through Whatman GF/B glass fiber filters pretreated with 0.3% polyethylimine and subsequent washing with ice-cold buffer (10 mM Hepes-KOH pH 7.4, 500 mM NaCl) using a Brandel receptor binding harvester. Scintillation cocktail was added and radioactivity was determined in a Packard 2500TR liquid scintillation counter. (Perkin Elmer, USA)
As for `CC(C)C[C@H](CO)Nc1nc(S[C@@H](C)c2ccc(Cl)cn2)nc2[nH]c(=O)sc12` [Example 1, 5-{[(1S)-1-(5-Chloropyridin-2-yl)ethyl]thio}-7-{[(1R)-1-(hydroxymethyl)-3-methylbutyl]amino}[1,3]thiazolo[4,5-d]pyrimidin-2(3H)-one], the Ki was determined as 5.8 nM. Then `CC(C)C[C@H](CO)Nc1nc(S[C@@H](C)c2ccc(F)cn2)nc2[nH]c(=O)sc12` [Example 2, 5-{[(1S)-1-(5-Fluoropyridin-2-yl)ethyl]thio}-7-{[(1R)-1-(hydroxymethyl)-3-methylbutyl]amino}[1,3]thiazolo[4,5-d]pyrimidin-2(3H)-one], with 20 nM. On to `CC(C)C[C@H](CO)Nc1nc(S[C@@H](C)c2ncccc2F)nc2[nH]c(=O)sc12` [Example 4, 5-{[(1S)-1-(3-Fluoropyridin-2-yl)ethyl]thio}-7-{[(1R)-1-(hydroxymethyl)-3-methylbutyl]amino}[1,3]thiazolo[4,5-d]pyrimidin-2(3H)-one], for which the inhibition constant Ki was 18 nM.

Turning to `CCC[C@H](CO)Nc1nc(S[C@@H](C)c2ccc(Cl)nc2)nc2[nH]c(=O)sc12` [Example 6, 5-{[(1S)-1-(6-Chloropyridin-3-yl)ethyl]thio}-7-{[(1R)-1-(hydroxymethyl)butyl]amino}[1,3]thiazolo[4,5-d]pyrimidin-2(3H)-one], the affinity, expressed as Ki, was 21.4 nM.

The molecule `CCC[C@H](CO)N(C)c1nc(S[C@@H](C)c2ccc(Cl)nc2)nc2[nH]c(=O)sc12` [Example 7, 5-{[(1S)-1-(6-Chloropyridin-3-yl)ethyl]thio}-7-[[(1R)-1-(hydroxymethyl)butyl](methyl)amino][1,3]thiazolo[4,5-d]pyrimidin-2(3H)-one] returned a Ki of 440 nM.

The molecule `CC(C)C[C@H](CO)Nc1nc(S[C@H](C)c2ccncc2F)nc2[nH]c(=O)sc12` [Example 8a, 5-{[(1R)-1-(3-Fluoropyridin-4-yl)ethyl]thio}-7-{[(1R)-1-(hydroxymethyl)-3-methylbutyl]amino}[1,3]thiazolo[4,5-d]pyrimidin-2(3H)-one] displayed a Ki of 97 nM. Under `CC(C)C[C@H](CO)Nc1nc(S[C@@H](C)c2ccncc2F)nc2[nH]c(=O)sc12` [Example 8b, 5-{[(1S)-1-(3-Fluoropyridin-4-yl)ethyl]thio}-7-{[(1R)-1-(hydroxymethyl)-3-methylbutyl]amino}[1,3]thiazolo[4,5-d]pyrimidin-2(3H)-one] stands 1.5 nM.
